One experiment has as its system CTFα. As to the kind of experiment: APP carboxy-terminal fragment αCTF by Western blot in SY5Y-APP695WT cells. Type of experiment: cell-based, human. The conditions noted are these: CTFα increase compared to chloroquine ([CTF]compound/[CTF]CQ) at 3 μM; mean of at least three experiments. From the text:
Antibodies. Primary antibodies used in this study for western-blot analysis included a homemade rabbit antiserum against the last 17 amino acids of human APP protein sequence, named APP-Cter-C17 (1/5000 in TBS-M). Anti-β-actin (1/10 000 in TBS-M) was obtained from Sigma. Anti-LC3B (1/2000 in TBS-BSA) and anti-p62/SQSTM1 (1/2000 in TBS-M) antibodies were purchased from Cell Signaling Technology. Secondary antibodies (peroxidase-labeled goat anti-rabbit IgG, 1/5000 or peroxidase-labeled horse anti-mouse IgG, 1/50000 in TBS-T) were obtained from Vector Laboratories.
Cell culture and treatment. The human neuroblastoma cell line SY5Y-APP^695WT was maintained in Dulbecco's modified Eagle medium (DMEM, high glucose, pyruvate—GIBCO by Life Technologies) supplemented with 10% foetal bovine serum, 2 mM L-glutamine, 1 mM non-essential amino acids and penicillin/streptomycin (GIBCO by Life Technologies) at 37° C. in a 5% CO2 humidified incubator. SY5Y-APP^695WT cells were maintained in 75 cm^2 culture flasks (Falcon) with supplemented DMEM medium until they reached 80% of confluence 24 h before treatment.
For drug treatment, cells were plated at a rate of 5·10^5 cells per well into 12-well plates (Falcon) and cultured with 1 mL supplemented DMEM cell medium for 24 h before drug exposure. The following day, cell medium was replaced with fresh medium containing drugs diluted at the indicated concentrations. Cells were treated for 24 h. At the end of treatments, the cell medium was collected and kept at −80° C. until use for dosage. Then, cells were rinsed once with PBS and extracted in 100 μL of Laemmli buffer (10 mM Tris, 20% glycerol and 2% Sodium dodecyl sulfate) using a cell-scraper. The cell lysate was further sonicated (30 pulses of 0.5 s, 60 Hz) for 5 min. Total protein concentration was determined using the Pierce BCA Protein Assay Kit (Thermo scientific) according to the manufacturer's instructions. Samples were stored at −80° C. until analysis.
Western Blot Analysis. Cell protein lysates were prepared for western-blot analysis by diluting the sample with 1 volume of NuPAGE® lithium dodecyl sulfate (LDS) 2× sample buffer supplemented with 20% NuPAGE® sample reducing agents (Invitrogen). Samples were heat 10 min at 100° C. 10 μg of total proteins per well were loaded onto a precast 4-12% Criterion XT Bis-Tris polyacrylamide gel (Bio-Rad) and electrophoresis was achieved after applying a tension of 150 V during 90 min using a Criterion electrophoresis Cell with the NuPAGE® MOPS SDS running buffer (1×). Proteins were transferred to a nitrocellulose membrane of […] pore size (G&E Healthcare) using the Criterion blotting system and applying a tension of 100 V for 45 min. To resolve proteins of low molecular weights such as carboxy-terminal fragments of APP, 12% Criterion XT Bis-Tris polyacrylamide gels (Bio-Rad) were used and electrophoresis was performed during 70 min at 150 V in a NuPAGE® MES SDS running buffer (1×). Proteins were transferred to a nitrocellulose membrane of 0.2 μm pore size (G&E Healthcare) at 100 V for 40 min. Molecular weights calibration was achieved using molecular weight markers (Novex and Magic Marks, Life Technologies). Protein transfer and quality were determined by a reversible Ponceau Red coloration (0.2% Xylidine Ponceau Red and 3% Trichloroacetic acid). Membranes were then blocked in 25 mM Tris-HCl pH 8.0, 150 mM NaCl, 0.1% Tween-20 (v/v) (TBS-T) and 5% (w/v) of skimmed milk (TBS-M) or 5% (w/v) of bovine serum albumin (TBS-BSA) depending on the antibody during 1 h. Membrane was rinsed three-times 10 min in TBS-T before incubation with the primary antibody overnight at 4° C. Membrane was rinsed 3 times 10 min with TBS-T and then incubated with the secondary antibody for 45 min at room temperature (RT). […] Quantifications of protein expression levels were performed with ImageJ Software (NIH). […]

For another experiment, the system named is Aβ1-40 peptide secretion. Nature of the experiment: Quantification of secreted Aβ1-40 by ELISA in SY5Y-APP695WT cells. The following applies: Homo sapiens; concentration inhibiting 50% of Aβ1-40 peptide secretion in SY5Y cells; 24 h treatment; mean ± SD of at least two experiments in triplicate. Type of experiment: cell-based. On the procedure:
Cell culture and treatment. The human neuroblastoma cell line […] was maintained in Dulbecco's modified Eagle medium (DMEM, high glucose, pyruvate-GIBCO by Life Technologies) supplemented with 10% foetal bovine serum, 2 mM L-glutamine, 1 mM non-essential amino acids and penicillin/streptomycin (GIBCO by Life Technologies) at 37° C. in a 5% CO2 humidified incubator. […] cells were maintained in 75 cm^2 culture flasks (Falcon) with supplemented DMEM medium until they reached 80% of confluence 24 h before treatment. For compounds treatment, a 10 mM stock solution was diluted in freshly supplemented DMEM medium to obtain the precise final concentration of drug. Bafilomycin A1 (BafA1), the vacuolar […] type H+ ATPase inhibitor, was purchased from Merck Millipore and was used at a final dilution of 100 nM. For drug treatment, cells were plated at a rate of 5·10^5 cells per well into 12-well plates (Falcon) and cultured with 1 mL supplemented DMEM cell medium for 24 h before drug exposure. The following day, cell medium was replaced with fresh medium containing drugs diluted at the indicated concentrations. Cells were treated for 24 h. At the end of treatments, the cell medium was collected and kept at -80° C. until use for dosage. Then, cells were rinsed once with PBS and extracted in 100 μL of Laemmli buffer (10 mM Tris, 20% glycerol and 2% Sodium dodecyl sulfate) using a cell-scraper. The cell lysate was further sonicated (30 pulses of 0.5 s, 60 Hz) for 5 min. Total protein concentration was determined using the Pierce BCA Protein Assay Kit (Thermo scientific) according to the manufacturer's instructions. Samples were stored at -80° C. until analysis. Quantification of secreted Aβ1-40/1-42 and sAPPα/sAPPβ. Conditioned media of […] collected at the end of treatments were centrifuged at 1000 g for 5 min to eliminate cells debris. Aβ1-40 and Aβ1-42 peptide concentrations in […] were determined using amyloid-beta 40 and 42 Human ELISA kits (Invitrogen) according to the manufacturer's instructions after 1:10 and 1:2 dilutions of supernatants in ELISA buffer, respectively. sAPPα and sAPPβ concentrations in ng/mL were determined using the sAPPα/sAPPβ kit (Meso Scale Diagnostics, MSD®) according to the manufacturer's instructions. Compounds of the invention (compounds 24-37, 41, 44 and 51-58) were evaluated for their ability to modulate APP processing on SY5Y human neuroblastoma cell line stably expressing the neuronal isoform of human wild-type APP695 (SYSY-APPwt). Aβ levels (Aβ1-40 and Aβ1-42) after treatment with reference and tested compounds were measured by ELISA (Table 2). […] APP carboxy-terminal fragments (αCTFs and AICD) were measured by Western blot and quantified. The effect of reference and tested compounds on αCTFs and AICD are expressed as the intensity of corresponding western-blot bands resulting from the secretase cleavages.

Consider 2 compounds from patent publication US20210230131A1, “POLYAMINO BIARYL COMPOUNDS AND THEIR USE” (INSERM (INSTITUT NATIONAL DE LA SANTÉ ET DE LA RECHERCHE …, priority 2018, published 2021).

In the case of `CN(C)Cc1ccccc1-c1ccc(NCCCN2CCCCC2)c(OCCC2CCCCC2)c1` [Compound 31, 3-(2-cyclohexylethoxy)-2′-((dimethylamino)methyl)-N-(3-(piperidin-1-yl)propyl)-[1,1′-biphenyl]-4-amine], the “CTFα vs CQ (3 μM)” value with CTFα is listed as 0.1. Also, the concentration for half-maximal inhibition (IC50) (usually the point on the concentration scale where inhibition reaches its midpoint) with Aβ1-40 peptide secretion stood at 2100 ± 300 nM.
In the case of `CN(C)Cc1ccccc1-c1ccc(NCCCN2CCCCC2)c(OCCN2CCCCC2)c1` [Compound 30, 4-(2-[(Dimethylamino)methyl]phenyl)-2-[2-(piperidin-1-yl)ethoxy]-N-[3-(piperidin-1-yl)propyl]aniline], the “CTFα vs CQ (3 μM)” value in the experiment on CTFα stood at 6.4. The IC50 with Aβ1-40 peptide secretion was 2800 ± 1200 nM.
